According to ChEMBL document CHEMBL6134779, “Design of Proteolytic-Resistant Antifungal Peptides by Utilizing Minimum d-Amino Acid Ratios” (J Med Chem, 2024):
Converted amounts (≈) assume the structure as drawn.

Experiments:
Format in all cases: functional
Candida albicans [1] = assay: Antifungal activity against Candida albicans CGMCC 2.2086 assessed as inhibition of fungal growth incubated for 48 hrs
Candida tropicalis = assay: Antifungal activity against Candida tropicalis CGMCC 2.1975 assessed as inhibition of fungal growth incubated for 48 hrs
Candida albicans [2] = assay: Antifungal activity against Candida albicans SP3902 assessed as inhibition of fungal growth incubated for 48 hrs
Candida albicans [3] = assay: Antifungal activity against Candida albicans SP3903 assessed as inhibition of fungal growth incubated for 48 hrs
Candida albicans [4] = assay: Antifungal activity against Fluconazole-resistant Candida albicans 58288 assessed as inhibition of fungal growth incubated for 48 hrs
Candida albicans [5] = assay: Antifungal activity against Candida albicans SP3876 assessed as inhibition of fungal growth incubated for 48 hrs
Candida albicans [6] = assay: Antifungal activity against Candida albicans SP3931 assessed as inhibition of fungal growth incubated for 48 hrs
Candida albicans [7] = assay: Antifungal activity against Candida albicans 14936 assessed as inhibition of fungal growth incubated for 48 hrs
Candida albicans [8] = assay: Antifungal activity against Candida albicans 17546 assessed as inhibition of fungal growth incubated for 48 hrs
Candida albicans [9] = assay: Antifungal activity against Fluconazole-resistant Candida albicans 56214 assessed as inhibition of fungal growth incubated for 48 hrs
Candida albicans [10] = assay: Antifungal activity against Candida albicans 56452 assessed as inhibition of fungal growth incubated for 48 hrs
Candida parapsilosis = assay: Antifungal activity against Candida parapsilosis CGMCC 2.3989 assessed as inhibition of fungal growth incubated for 48 hrs; details: Lodderomyces parapsilosis
Candida albicans [11] = assay: Resistance development in Candida albicans CGMCC 2.2086 assessed as fold increase in MIC after 20 passages by broth microdilution method relative to control
Candida albicans [12] = assay: Resistance development in Candida albicans CGMCC 2.2086 assessed as fold increase in MIC after 30 passages by broth microdilution method relative to control

OC(Cn1cncn1)(Cn1cncn1)c1ccc(F)cc1F [FLUCONAZOLE]
MIC95 (Candida albicans [1]): 4 µM (≈ 1.23 µg/mL) | MIC95 (Candida tropicalis): 1 µM (≈ 0.306 µg/mL) | MIC95 (Candida albicans [2]): 4 µM (≈ 1.23 µg/mL) | MIC95 (Candida albicans [3]): 2 µM (≈ 0.613 µg/mL) | MIC95 (Candida albicans [4]): > 64 µM | MIC95 (Candida albicans [5]): 8 µM (≈ 2.45 µg/mL) | MIC95 (Candida albicans [6]): 2 µM (≈ 0.613 µg/mL) | MIC95 (Candida albicans [7]): 2 µM (≈ 0.613 µg/mL) | MIC95 (Candida albicans [8]): 1 µM (≈ 0.306 µg/mL) | MIC95 (Candida albicans [9]): > 64 µM | MIC95 (Candida albicans [10]): 2 µM (≈ 0.613 µg/mL) | MIC95 (Candida parapsilosis): 4 µM (≈ 1.23 µg/mL) | fold change (FC) (Candida albicans [11]): 64 | fold change (FC) (Candida albicans [12]): 128
